Data on 5 compounds can be found in publication PMC9021288 (Nature Communications, 2022).

Structures are written as SMILES. Where “and” joins values, the source holds several entries; their conditions need not be identical. Equal values may be shown once. Read-outs that look alike come from different tables or passages of the source.

In data set [1] the test system is P. falciparum T648M / T627A AcAS mutant gametocytes. It is filed as cell-based, Plasmodium falciparum. The procedure:
Gametocyte viability assays on NF54-HGL parasites were performed using an adapted high-throughput protocol as previously described[15],[64]. In short, asexual blood-stage parasite cultures were set up at 1% parasitemia in a semi-automated shaker system at 5% hematocrit. From day four until day eight or nine, parasites were treated with 50 mM N-acetyl glucosamine to eliminate all asexual blood-stage parasites. Subsequently, gametocytes were isolated by a Percoll density gradient centrifugation. At day 11, gametocytes were seeded (5,000 per well) in 30 µl in white 384-well plates containing 30 µl of compounds diluted in medium (0.1% DMSO). After a 72-h incubation, 30 µl of ONE-Glo reagent (Promega) was added according to manufacturer’s protocol and luminescence was quantified using the BioTek Synergy 2 Plate reader. Values were normalized to DMSO- and epoxomicin or dihydroartemisinin-treated controls.

For data set [2], the system named is cryopreserved human primary hepatocytes. Put plainly: Human hepatocyte clearance (relay assay). As to conditions: for % Remaining: 10 µM, single replicates; for Human hepatocyte CLint: hepatocytes. An excerpt:
Briefly, cryopreserved human primary hepatocytes were thawed and cultured as described above.

Data set [3] in a line: Blood concentration and PK in infected NSG mice after single oral dose. The format is in vivo, mouse. The procedure: The effect of pantothenamides on P. falciparum Pf3D7^0087/N9 [66] in vivo was assessed in female NSG mice (NODscidIL2Rγ^null) at the Swiss Tropical and Public Health Institute (Basel, Switzerland) as described previously (Supplementary Table 30)[15],[67]. Briefly, humanized mice were engrafted daily with human erythrocyte suspensions from days -11 to day 6. After 11 days (day 0), mice were injected intravenously with 3×10^7 infected RBCs in a volume of 0.1 ml. On day 4, groups of n = 2 mice were treated with a single dose pantothenamides or chloroquine (50 mg/kg) by oral gavage. The hematocrit of all dosed mice and an untreated control group (n = 4 mice) was determined by fluorescence-activated cell sorting and parasitemia was analyzed by microscopy on >10,000 RBCs as described before. Samples to quantify compound metabolites were collected and prepared at different time points (1, 2, 4, 6, and 24 h after treatment) for each mouse by mixing 20 µl of whole blood with 20 µl of Milli-Q, followed by immediate freezing of samples on dry ice. […] Serial dilutions were prepared in the same solvent to concentrations 50 times higher than the corresponding CAL and QC concentrations. The concentrations were calculated under consideration of purity and salt factor. The spiking of the CAL and QC sample were performed at room temperature. The eight calibration levels were 5.00, 10.0, 50.0, 100, 500, 1000, 3750, and 5000 ng/mL and three QC levels 15.0, 100, and 3750 ng/mL were analyzed in duplicate, together with the study samples.
For the sample precipitation, to an aliquot of 10 µL mouse blood/water (1/1) study sample, 20 µL of acetonitrile containing the internal standard MMV1542001 at a concentration of 100 ng/mL was added. After vortex mixing, the samples were centrifuged for 10 min at 50,000 g at 8 °C. Subsequently, an aliquot of 20 µL of the supernatant was transferred to an autosampler vial and an aliquot of 5 µL was injected onto the LC-MS/MS system.
The samples were handled by an autosampler CTC PAL (CTC Analytics AG, Zwingen, Switzerland) set at 8 °C. The chromatography column used was a YMC Hydrosphere C18, 2.1 × 33 mm, 3 µm (YMC Co. Ltd., Kyoto, Japan), kept at room temperature. The aqueous mobile phase consisted of water containing 0.1 % formic acid, whereas the organic mobile phase consisted of acetonitrile containing 0.1 % formic acid, pumped by HPLC pump from Agilent 1200 series (Agilent Technologies Inc, Santa Clara, CA, USA). The HPLC gradient was as follows: 95% phase A, 5% phase B for 0.20 min, followed by transition to 5% phase A, 95% phase B in 1 min, 2 min at these concentrations, and a subsequent increase to 95% phase A, 5% phase B in 0.05 min which is kept for the remaining 0.75 min.
The detection of MMV693183 was performed using a TSQ Access mass spectrometer (Thermo Fisher Scientific, San Jose, CA, USA) by selected reaction monitoring. The ion source was heated electrospray ionization, using a negative polarity. Following parameters were used: Voltage 2500 [V], Vaporizer temperature 350 [°C], Sheath gas 60 [au], Auxiliary gas 5 [au], Capillary temperature 350 [°C] and Collision gas pressure 1.0 [mTorr]. […] The transition used for the internal standard was: parent ion 325.030 m/z—daughter ion 195.000 m/z.
The concentration of the analyte was calculated using the internal standardization method. The area ratio of analyte to internal standard against the concentration of calibration samples was used for quantification. The acquisition and processing of data were performed using LCquan 2.5.6 and Xcalibur 2.0.7. Microsoft Office Excel 2007 Prof was used for calculations and statistical evaluation of data. […] The Lower Limit of Quantification was 5.00 ng/mL in […], whereas The Upper Limit of Quantification was 5000 ng/mL in mouse blood/water (1/1).

As a reminder, the Cmax is the maximum level reached in the sampled fluid or tissue. A word on the Tmax: it is the time from dosing to the highest level. The half-life is the time in which the quantity being followed falls by half. Low values mean rapid decline, high ones slow decline.

`C[C@@H](CNC(=O)[C@H](O)C(C)(C)CO)NC(=O)c1cc(F)c(F)cc1F` [MMV693183]: in data set [1] (CRISPR cT648M), the IC50 shift sexual is listed as greater than 50 ×. The IC50 shift gametocytes in data set [1] (selected resistant (dT648M) gametocytes) is recorded as greater than 50 ×. Besides, the “% Remaining” value in data set [2] (hepatocyte donor HC02, 0 h) is 100.0%; in data set [2] (hepatocyte donor HC02, 6 h) it was 77.4% and 91.4%; in data set [2] (hepatocyte donor HC02, 24 h), 90.3% and 124.4%; in data set [2] (hepatocyte donor HC02, 48 h) it was 87.4% and 110.8%; in data set [2] (hepatocyte donor HC02, 72 h), 63.9% and 86.8%; in data set [2] (hepatocyte donor HC06, 0 h) it was 100.0%. The “% Remaining” value in data set [2] (hepatocyte donor HC06, 3 h) was 77.2% and 88.0%; in data set [2] (hepatocyte donor HC06, 6 h), 79.3% and 91.3%; in data set [2] (hepatocyte donor HC06, 24 h), 87.0% and 115.0%; in data set [2] (hepatocyte donor HC06, 48 h) it was 64.3% and 81.2%; in data set [2] (hepatocyte donor HC06, 72 h) it was 61.0% and 75.3%; in data set [2] (hepatocyte donor HC425, 0 h), 100.0%. Moreover, the “% Remaining” value in data set [2] (hepatocyte donor HC425, 6 h) was 79.3% and 88.2%; in data set [2] (hepatocyte donor HC425, 24 h), 68.0% and 93.2%; in data set [2] (hepatocyte donor HC425, 48 h) it was 73.6% and 94.3%; in data set [2] (hepatocyte donor HC425, 72 h) it was 68.2% and 91.6%; in data set [2] (hepatocyte donor HC1010, 0 h), 100.0%; in data set [2] (hepatocyte donor HC1010, 1 h) it was 120.3% and 86.1% and 104.1% and 69.6%. The “% Remaining” value was 88.7% and 55.7% and 88.0% and 45.9% in data set [2] (hepatocyte donor HC1010, 6 h); 90.4% and 62.9% and 77.2% and 55.3% in data set [2] (hepatocyte donor HC1010, 24 h); 70.7% and 54.4% and 57.7% and 44.1% in data set [2] (hepatocyte donor HC1010, 48 h); 34.1% and 43.9% and 31.3% and 51.9% in data set [2] (hepatocyte donor HC1010, 72 h). In addition, the values for the CLint in data set [2] (donor HC02), in data set [2] (donor HC06) and in data set [2] (donor HC425) were 0.082 µL/min/million cells, 0.142 µL/min/million cells and 0.0695 µL/min/million cells, respectively. The “Human hepatocyte CLint” value in data set [2] is listed as 0.4 µl/min/10^6 cells. Besides, in data set [2] (range of donors), the “human hepatocyte clearance, four donors” value was 0.07 to 0.4 µl/min/10^6 cells. Moreover, the AUC0-24h in data set [3] (50 mg/kg p.o.) was 33.7 µg·h/mL. In addition, the Cmax in data set [3] (50 mg/kg p.o.) turned out to be 12.9 µg/mL. In data set [3] (50 mg/kg p.o.), this compound showed a T1/2 of 2.49 h. In addition, the Tmax in data set [3] (50 mg/kg p.o.) is listed as 1.50 h. The concentration in blood in data set [3] (1 h post treatment, per mouse) is 6.96 µg/mL and 16.2 µg/mL; in data set [3] (2 h post treatment, per mouse), 9.66 µg/mL and 7.3 µg/mL; in data set [3] (4 h post treatment, per mouse) it was 2.36 µg/mL and 1.17 µg/mL; in data set [3] (6 h post treatment, per mouse), 0.802 µg/mL and 0.376 µg/mL; in data set [3] (24 h post treatment, per mouse) it was 0.01 µg/mL.

Turning to `CC(C)(CO)[C@@H](O)C(=O)NCCNC(=O)c1cc(C#N)ccc1F` [MMV976394], in data set [2], the “Human hepatocyte CLint” value stood at 0.2 µl/min/10^6 cells. This compound also registered an AUC0-24h in data set [3] (50 mg/kg p.o.) of 10.8 µg·h/mL. This compound yielded a Cmax in data set [3] (50 mg/kg p.o.) of 5.81 µg/mL. This compound registered a T1/2 in data set [3] (50 mg/kg p.o.) of 2.95 h. The Tmax in data set [3] (50 mg/kg p.o.) is reported as 1.00 h. The concentration in blood in data set [3] (1 h post treatment, per mouse) is 6.84 µg/mL and 4.78 µg/mL; in data set [3] (2 h post treatment, per mouse), 1.23 µg/mL and 1.5 µg/mL; in data set [3] (4 h post treatment, per mouse), 0.45 µg/mL and 0.356 µg/mL; in data set [3] (6 h post treatment, per mouse), 0.204 µg/mL and 0.214 µg/mL; in data set [3] (24 h post treatment, per mouse) it was 0.01 µg/mL.

For `C[C@@H](CNC(=O)[C@H](O)C(C)(C)CO)NC(=O)c1cccc(F)c1` (stereo in doubt) [MMV1542001], the “Human hepatocyte CLint” value in data set [2] is 0.5 µl/min/10^6 cells. Moreover, the AUC0-24h in data set [3] (50 mg/kg p.o.) was 11.8 µg·h/mL. In addition, in data set [3] (50 mg/kg p.o.), the Cmax came to 5.15 µg/mL. The compound also returned a T1/2 in data set [3] (50 mg/kg p.o.) of 2.80 h. In data set [3] (50 mg/kg p.o.), the time of peak concentration (Tmax) came to 1.00 h. The concentration in blood is 4.48 µg/mL and 5.82 µg/mL in data set [3] (1 h post treatment, per mouse); 1.52 µg/mL and 1.62 µg/mL in data set [3] (2 h post treatment, per mouse); 0.492 µg/mL and 0.574 µg/mL in data set [3] (4 h post treatment, per mouse); 0.314 µg/mL and 0.34 µg/mL in data set [3] (6 h post treatment, per mouse); 0.01 µg/mL in data set [3] (24 h post treatment, per mouse).

For `C[C@@H](CNC(=O)[C@H](O)C(C)(C)CO)NC(=O)c1cccc(C#N)c1` (stereo in doubt) [MMV884962], the “Human hepatocyte CLint” value in data set [2] is 0.3 µl/min/10^6 cells. In data set [3] (50 mg/kg p.o.), this compound had an AUC0-24h of 8.65 µg·h/mL. Also, the Cmax in data set [3] (50 mg/kg p.o.) is 3.92 µg/mL. In data set [3] (50 mg/kg p.o.), this compound registered a T1/2 of 3.32 h. Moreover, the Tmax in data set [3] (50 mg/kg p.o.) was 1.00 h. The concentration in blood is 3.92 µg/mL in data set [3] (1 h post treatment, per mouse); 1.18 µg/mL and 1.17 µg/mL in data set [3] (2 h post treatment, per mouse); 0.468 µg/mL and 0.37 µg/mL in data set [3] (4 h post treatment, per mouse); 0.222 µg/mL and 0.193 µg/mL in data set [3] (6 h post treatment, per mouse); 0.013 µg/mL and 0.01 µg/mL in data set [3] (24 h post treatment, per mouse).

In the case of `C[C@@H](CNC(=O)[C@H](O)C(C)(C)CO)NC(=O)c1cc(C#N)ccc1F` [MMV693182], the concentration in blood in data set [3] (1 h post treatment, per mouse) is 4.18 µg/mL; in data set [3] (2 h post treatment, per mouse), 2.2 µg/mL and 1 µg/mL; in data set [3] (4 h post treatment, per mouse) it was 0.866 µg/mL; in data set [3] (6 h post treatment, per mouse) it was 0.266 µg/mL and 0.912 µg/mL; in data set [3] (24 h post treatment, per mouse), 0.01 µg/mL and 0.0224 µg/mL. The compound further registered a concentration at 1 h in data set [3] (female, NSG (NODscidIL2Rγnull), mouse, whole blood, oral, 50 mg/kg, 1 h post treatment, per mouse) of 6.36 µg/mL. Further, in data set [3] (female, NSG (NODscidIL2Rγnull), mouse, whole blood, oral, 50 mg/kg, 4 h post treatment, per mouse), the concentration at 4 h worked out at 0.552 µg/mL. The compound also gave a half-life in data set [3] (female, NSG (NODscidIL2Rγnull), mouse, whole blood, po, 50 mg/kg p.o.) of 3.19 h. Further, the AUC(0 - t) in data set [3] (female, NSG (NODscidIL2Rγnull), mouse, whole blood, po, 50 mg/kg p.o., read-out: AUC0-24h) amounted to 15.1 µg·h/mL. For the same compound, the highest concentration (Cmax) in data set [3] (female, NSG (NODscidIL2Rγnull), mouse, whole blood, po, 50 mg/kg p.o., read-out: Cmax) was 5.27 µg/mL. The Tmax in data set [3] (female, NSG (NODscidIL2Rγnull), mouse, whole blood, po, 50 mg/kg p.o., read-out: Tmax) is 1 h.
